Here are results for two substances from publication PMC3627194, “Xentry, a new class of cell-penetrating peptide uniquely equipped for delivery of drugs” (Scientific Reports, 2013).

Data set [1] relates to K562 cells transfected to express syndecan-4. Put plainly: Uptake of Xentry by K562 cells engineered to express syndecan-4. The format is cell-based. To be noted: TAMRA-lclrpvg 20 μM, 3 h, 48 h after transfection with pCMV-hygro-SDC4. On the procedure: Cell nuclei were stained blue with DAPI. […] Scale bar, 50 μm.
The media was removed and replaced with RPMI without serum. Four micrograms of the syndecan-4 plasmid pCMV-hygro-SDC4 and 4 μl of polymag transfection reagent (OZ Biosciences, Marseille, France) were mixed in 100 μl of Opti-MEM media. The mixture was incubated for 20 min at room temperature, added to the cells, and the tissue culture plate placed onto a magnetic plate for 20 min. The media was removed and replaced with RPMI media containing 10% FCS, followed by incubation for 48 h at 37°C and 5% CO2, with a media change after 24 h. TAMRA-labelled Xentry (TAMRA-lclrpvg) was added to the transfectants 48 h following transfection to a final concentration of 20 μM, and the cells were incubated for 3 h. The cells were removed from the plate, washed thrice with PBS, cytospun onto a slide, and fixed with 4% formaldehyde for 15 min. They were washed with PBS and DAPI added for visualization of cell nuclei. […] The cells were then examined using a Nikon E600 fluorescent microscope, and photographed.

Data set [2] is classed as in vivo, Balb/c mice. The method, then:
(§1) All experiments in mice were performed in accordance with relevant institutional guidelines and regulations, and were subject to a protocol approved by the Animal Ethics Committee, the University of Auckland. Different amounts (0.1 mg, 1 mg and 5 mg) of a TAMRA-labelled D-isomeric form of Xentry (TAMRA-lclrpvg; Peptide 2.0 Inc., Chantilly, VA) were dissolved in 50 μl of PBS. […] Cardiac blood was collected into an EDTA tube and cytospun onto slides, and viewed by fluorescence microscopy to determine uptake of the peptide by blood cells. The major organs of each mouse was harvested and dissected in half to be either homogenized or placed in a cryotube with isopentane, frozen and sectioned. For homogenization, the organs were weighed and then homogenized in 500 μl of PBS in an Omni bead-ruptor homogenizer (OMNI International, Kennesaw, GA). Equal volumes of homogenate and 8 M guanidinium chloride were mixed, and then centrifuged at 12,000 g for 5 min, and fluorescence of the supernatant measured in a fluorescence plate reader.
Supplementary Figure 5 (cont)
Heart Lung Liver Spleen Pancreas Kidney Stomach Intestine Colon Muscle Brain […]
Supplementary Figure 5. Biodistribution of TAMRA-labelled Xentry intravenously injected into mice. (a) Mice were intravenously injected with 0.1 mg and 5 mg of TAMRA-labelled Xentry and the fluorescence of organ homogenates was measured 15 min, 1, 6, and 24 h later. Results are presented as the mean + SD (n = 3). Refer to Figure 4d for the fluorescence of organ homogenates of mice injected with 1 mg of Xentry. (b) Fluorescence of sections of the major organs of mice intravenously injected with 5 mg of TAMRA-labelled Xentry. The liver sections for the 15 min time-point […]

For a further data set, the system named is circulating blood cells. The format is in vivo, Balb/c mice. To be noted: 0.1, 1 and 5 mg i.v.; cytospins of whole blood at 15 min, 1 h, 6 h and 24 h. On the procedure:
as §1
Supplementary Figure 6. […] A sample of […]
cardiac blood was collected from mice injected with 0.1, 1 and 5 mg of TAMRA-labelled Xentry at 4 different time points, and cytospun onto a slide. The blood sample was examined by brightfield and fluorescence microscopy. […]

The subject of data set [3] is HepG2 cells. Put plainly: Assay to test for cell permeability of peptides. The format is cell-based. To be noted: confocal microscopy. On the procedure: Figure 1 Cell-permeability of X-protein peptides. (a) X-protein peptides aa 1–20 and 16–35 are cell-permeable. Four FITC-labelled peptides encompassing aa 1–20, 16–35, 21–40 and 34–53 from the N-terminal region of the X-protein were incubated at 10 μM with HepG2 cells and their uptake by the cells recorded by confocal microscopy. Cell nuclei were stained blue with DAPI. (b) The sequence of the first 35 N-terminal residues of the HBV X-protein are shown with the sequence of Xentry (LCLRPVG; residues 16–22) highlighted in red. Short FITC-labelled peptides (10 μM) aa 16–26, 16–24 and 16–22 (Xentry) derived from peptide aa 16–35 also permeate HepG2 cells (upper panel). […] Cell nuclei were stained blue with DAPI. […] Cell nuclei were stained blue with DAPI. Scale bar, 50 μm.
(§2) HepG2 cells (ATCC, Manassas, VA) were seeded into 8-well chamber slides at 1 × 10^5 cells per well in MEM media (Gibco, Life Technologies New Zealand Ltd) containing 10% FCS and PSG. […] L-isomeric peptides were diluted in 500 μl of MEM media without FCS, whereas D-isomeric peptides were diluted in the same media containing FCS, and each added to cells at a final concentration of 10 μM, or as indicated. The cells were incubated for 3 h at 37°C in a 5% CO2 atmosphere, washed with PBS, fixed with 4% formaldehyde for 30 min, and washed thrice with PBS. A drop of Prolong Gold anti-fade reagent with DAPI (Invitrogen, Life Technologies New Zealand Ltd) was added, and the cells mounted and examined with a Nikon E600 fluorescence microscope or a Leica TCS-SP2 confocal microscope.
(§3) Supplementary Figure 3. The D-isomeric form of Xentry aa 16-22 is cell permeable, and is stable in serum for at least 4 h.
(§4) (a) FITC-labelled D-isomeric Xentry was incubated with HepG2 cells at concentrations of […] for 3 h.
(§5) Uptake was recorded by fluorescence microscopy. Cell nuclei were stained with DAPI. (b) FITC-labelled L-isomeric and D-isomeric forms of Xentry were incubated in serum for 0, 1, and 4 h before incubation with HepG2 cells. Cell nuclei were stained with DAPI. Scale bar, 50 μm. […]

The next data set has as its system C32 (melanoma). Put plainly: Cell permeability of Xentry, C32 cell line. To be noted: data not shown. The format is cell-based.
A further data set concerns DU145 (prostate). Put plainly: Cell permeability of Xentry, DU145 cell line. Format: cell-based. To be noted: data not shown.
Another data set concerns H441 (lung). Put plainly: Cell permeability of Xentry, H441 cell line. Format: cell-based. To be noted: data not shown.
The test system of a further data set is BT474 (breast). Put plainly: Cell permeability of Xentry, BT474 cell line. Format: cell-based. To be noted: data not shown.
In a further data set the test system is Cos (kidney). Put plainly: Cell permeability of Xentry, Cos cell line. The format is cell-based. To be noted: data not shown.
In data set [4] the test system is Rin-m5F (pancreatic β-cell). Put plainly: Cell permeability of Xentry, Rin-m5F cell line. Format: cell-based. To be noted: data not shown.
Data set [5] has as its system human peripheral blood lymphocytes. Kind of data set: Uptake of Xentry by non-adherent blood lymphocytes. Format: cell-based. To be noted: FITC-labelled Xentry 10 μM.
For another data set, the system named is erythrocytes. Put plainly: Uptake of Xentry by erythrocytes. Format: cell-based, human. To be noted: FITC-labelled Xentry 10 μM.
Data set [6] relates to K562 erythroleukemia cells. The format is cell-based. To be noted: non-adherent K562 erythroleukemia cells, FITC-labelled Xentry (LCLRPVG), fluorescence microscopy. On the procedure: (§6) K562 cells TK-1 cells Activated TK-1 cells
(§7) Supplementary Figure 1. […] FITC- […]
(§8) labelled Xentry (LCLRPVG; aa 16-22) was incubated with non-adherent K562 erythroleukemia cells and mouse TK-1 T cells and with Mn++-activated TK-1 cells attached to MAdCAM-1-coated plates. Cell uptake was recorded by fluorescence microscopy. Cell nuclei were stained blue with DAPI. Plates were coated with 1 µg/ml of MAdCAM-1 overnight and activated TK-1 cells were allowed to bind to the plates for 45 mins before incubation with FITC-labelled Xentry for 3 h. Scale bar represents […]

The next data set has as its system mouse TK-1 T cells. The format is cell-based. To be noted: non-adherent mouse TK-1 T cells, FITC-labelled Xentry (LCLRPVG), fluorescence microscopy. On the procedure: as §6, §7, §8
Data set [7] relates to peripheral blood monocytes attached to plastic. Kind of data set: Uptake of Xentry by adherent blood monocytes. The format is cell-based, human. To be noted: FITC-labelled Xentry 10 μM.
In data set [8] the test system is Mn++-activated adherent TK-1 T cells bound to MAdCAM-1-coated plates. Format: cell-based, mouse. To be noted: Mn++-activated TK-1 cells bound via α4β7 to plates coated with 1 µg/ml MAdCAM-1, FITC-labelled Xentry 3 h. On the procedure:
as §6, §7, §8

In data set [9] the test system is HepG2 cells. Format: cell-based. On the procedure:
as §2
Untreated 37°C 4°C deoxyglucose Heparin Chlorpromazine
Supplementary Figure 2. Cellular requirements for internalization of Xentry by HepG2 cells. (a) Incubation of FITC-labelled Xentry with HepG2 cells for 3 h at 4°C, or in the presence of 10 mM sodium azide and 6 mM 2-deoxy-D-glucose, 2 µg/ml heparin, or 10 µg/ml of chlorpromazine, as indicated, inhibited peptide uptake. Cell nuclei were stained blue with DAPI. Scale bar, 50 μm. […]

The format of data set [10] is in vitro ADME. To be noted: FITC-labelled peptide incubated in serum 0, 1 and 4 h, then incubated with HepG2 cells; read-out cell uptake by fluorescence microscopy. On the procedure:
as §3, §4, §5

The nature of data set [11]: Acute toxicity after intravenous injection. Format: in vivo. To be noted: very high concentrations, single injection into the circulation.

Take “TAMRA-lclrpvg [TAMRA-labelled Xentry, TAMRA-labelled D-isomeric form of Xentry]”: in data set [1], the “Uptake by syndecan-4-expressing K562 transfectants” value is on record as “increased uptake”. Moreover, the “Uptake by heart, pancreas, brain relative to other tissues” value in data set [2] (0.1, 1 and 5 mg i.v., organ homogenates) is on record as “less well”. Further, the “Time to uptake by major tissues (organ homogenates)” value in data set [2] (0.1, 1 and 5 mg i.v., lungs, liver, spleen, kidneys, stomach, small intestine, colon, muscle, homogenate fluorescence, n = 3) is no more than 15 min. Also, in data set [2] (i.v., 24 h, organ homogenates), the “Level in most organs, except liver and kidneys, by 24 h” value was “only low levels”. In addition, the “Distribution within tissue sections” value in [2] (i.v., fluorescence of organ sections) was “concentrated within particular regions of certain tissues, such as the epithelia lining the colon, stomach and bronchial airways”. In the data set on circulating blood cells, the “Uptake by circulating blood cells” value was “not taken up and sequestered”.
As to “LCLRPVG [Xentry, 7 amino acid residue peptide LCLRPVG (residues 16–22) of the HBV X-protein; FITC-labelled in uptake tests]”, the “Cell permeability (uptake by HepG2 cells)” value in the data set with HepG2 cells [3] (FITC-labelled L-isomeric peptide 10 μM, MEM without FCS, 3 h, 37°C, cells fixed) is recorded as “cell-permeable”. Also, in the data set with HepG2 cells [3] (FITC-labelled peptide 10 μM, HepG2 cells, DAPI), the “Subcellular localisation after uptake” value was “taken up into the cytoplasm and nucleus”. For the same substance, the Cell permeability result (in the data set on C32 (melanoma); in the data set with DU145 (prostate); with H441 (lung); with BT474 (breast); with Cos (kidney); in data set [4]) was “capable of permeating” each time. Moreover, the Cell permeability entry (in data set [5]; in the data set with erythrocytes; in data set [6]; with mouse TK-1 T cells) was “incapable of permeating” in each case. Moreover, the Cell uptake entry in data set [7] and in data set [8] was “taken up” each time. Also, in the data set with HepG2 cells [9] (FITC-labelled Xentry, 3 h, 4°C), the “Internalization by HepG2 cells at 4°C” value was “not at 4 °C”. The “Internalization by HepG2 cells at 37°C” value in the data set with HepG2 cells [9] (FITC-labelled Xentry, 3 h, 37°C) is “internalized”. Moreover, the “Uptake in the presence of heparin” value with HepG2 cells [9] (HepG2, 2 µg/ml heparin, 3 h) is given as “blocked”. In addition, the “Uptake in the presence of chlorpromazine” value in the data set with HepG2 cells [9] (HepG2, 10 µg/ml chlorpromazine (clathrin pathway inhibitor), 3 h) is “blocked”. Also, the “Uptake after pretreatment with azide and deoxyglucose” value in the data set on HepG2 cells [9] (HepG2, 10 mM sodium azide and 6 mM 2-deoxy-D-glucose, 3 h) is reported as “blocked”. Moreover, the “Effect of cytochalasin D on uptake” value in the data set on HepG2 cells [9] (HepG2, data not shown) is given as “without effect”. Moreover, the “Effect of filipin on uptake” value in the data set on HepG2 cells [9] (HepG2, data not shown) is reported as “without effect”. For the same substance, the “Time to inactivation in serum” value in [10] is no more than 1 h. The Acute toxicity entry in data set [11] is on record as “no signs of acute toxicity”.
